We go through 16 molecules from patent US8765741B2, “5,6-dihydro-1H-pyridin-2-one compounds” (Anadys Pharmaceuticals, Inc., priority 2007, dated 2014).

Structures are written as SMILES.

The target in one test is NS5B polymerase (Hepatitis C virus genotype 1b, UniProt P26663). The experiment in a line: biochemical.
Chain of NS5B polymerase (P26663 2420-3010): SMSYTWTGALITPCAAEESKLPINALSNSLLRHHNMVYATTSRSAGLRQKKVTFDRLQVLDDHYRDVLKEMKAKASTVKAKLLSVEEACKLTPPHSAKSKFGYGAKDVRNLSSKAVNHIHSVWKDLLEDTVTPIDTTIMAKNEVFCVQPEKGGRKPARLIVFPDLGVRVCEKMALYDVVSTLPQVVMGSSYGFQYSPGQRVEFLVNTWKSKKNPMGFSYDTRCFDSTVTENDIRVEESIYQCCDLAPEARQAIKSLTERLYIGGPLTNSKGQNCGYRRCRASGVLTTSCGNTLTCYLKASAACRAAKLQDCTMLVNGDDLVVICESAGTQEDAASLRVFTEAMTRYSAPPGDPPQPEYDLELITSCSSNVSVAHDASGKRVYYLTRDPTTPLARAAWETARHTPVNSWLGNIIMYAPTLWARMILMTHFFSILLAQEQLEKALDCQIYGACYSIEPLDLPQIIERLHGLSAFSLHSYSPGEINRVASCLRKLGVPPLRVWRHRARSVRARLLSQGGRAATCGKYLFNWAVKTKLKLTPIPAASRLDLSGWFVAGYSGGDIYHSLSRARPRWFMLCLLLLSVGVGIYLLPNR
Conditions: not given
Here is the method: Compounds were tested for HCV polymerase inhibition. Assays were performed in a 96-well streptavidin-coated FlashPlate using 20 nM enzyme, 0.5 μCi of [α-^33P]GTP, 0.6 μM GTP, and 250 nM 5′biotinylated oligo (rG13)/poly rC in 20 mM Tris-HCl, pH 7.5, 5 mM MgCl2, 5 mM dithiothreitol, 0.1 g/L bovine serum albumin, and 100 U/mL RNAse inhibitor. The reaction was stopped by aspiration after 75 min at 28° C. and the plate was washed several times. After washing and drying the plate, incorporated radioactivity was counted using a Microbeta scintillation counter. IC50 values were calculated relative to the uninhibited control and inhibition data were fitted to a 4-parameter IC50 equation.
On to `CS(=O)(=O)Nc1ccc2c(c1)S(=O)(=O)N=C(C1=C(O)[C@@H]3[C@@H]4CC[C@@H](C4)[C@@H]3N(Cc3ccc(F)cc3)C1=O)N2` [Example 4, N-{3-[(1S,2S,7R,8R)-3-(4-Fluoro-benzyl)-6-hydroxy-4-oxo-3-aza-tricyclo[6.2.1.0^2,7]undec-5-en-5-yl]-1,1-dioxo-1,4-dihydro-1λ^6-benzo[1,2,4]thiadiazin-7-yl}-methanesulfonamide], for which the IC50 was below 20 nM.

In turn, `CS(=O)(=O)Nc1ccc2c(c1)S(=O)(=O)N=C(C1=C(O)[C@H]3[C@H]4CC[C@H](C4)[C@H]3N(Cc3ccc(F)cc3)C1=O)N2` [Example 5, N-{3-[(1R,2R,7S,8S)-3-(4-Fluoro-benzyl)-6-hydroxy-4-oxo-3-aza-tricyclo[6.2.1.0^2,7]undec-5-en-5-yl]-1,1-dioxo-1,4-dihydro-1λ^6-benzo[1,2,4]thiadiazin-7-yl}-methanesulfonamide] gave an IC50 of 100 to 1000 nM. For `CS(=O)(=O)Nc1ccc2c(c1)S(=O)(=O)N=C(C1=C(O)[C@@H]3[C@H]4CC[C@H](C4)[C@@H]3N(Cc3ccc(F)cc3)C1=O)N2` [Example 6, N-{3-[(1R,2S,7R,8S)-3-(4-Fluoro-benzyl)-6-hydroxy-4-oxo-3-aza-tricyclo[6.2.1.0^2,7]undec-5-en-5-yl]-1,1-dioxo-1,4-dihydro-1λ^6-benzo[1,2,4]thiadiazin-7-yl}-methanesulfonamide], the IC50 is below 20 nM.

The molecule `CS(=O)(=O)Nc1ccc2c(c1)S(=O)(=O)N=C(C1=C(O)[C@H]3[C@@H]4CC[C@@H](C4)[C@H]3N(Cc3ccc(F)cc3)C1=O)N2` [Example 7, N-{3-[(1S,2R,7S,8R)-3-(4-Fluoro-benzyl)-6-hydroxy-4-oxo-3-aza-tricyclo[6.2.1.0^2,7]undec-5-en-5-yl]-1,1-dioxo-1,4-dihydro-1λ^6-benzo[1,2,4]thiadiazin-7-yl}-methanesulfonamide] displayed an IC50 of 100 to 1000 nM.

Staying with this test, now noted: NS5B polymerase inhibition; 20 nM enzyme, 75 min at 28° C.; read-out: IC50.
On to `CS(=O)(=O)Nc1ccc2c(c1)S(=O)(=O)N=C(C1=C(O)C3C4CCC(O4)C3N(C3CCCC3)C1=O)N2` (racemic) [Example 48, (rac-di-exo)-N-[3-(3-Cyclopentyl-6-hydroxy-4-oxo-11-oxa-3-aza-tricyclo[6.2.1.0^2,7]undec-5-en-5-yl)-1,1-dioxo-1,4-dihydro-1λ^6-benzo[1,2,4]thiadiazin-7-yl]-methanesulfonamide], for which the IC50 lay within 20 to 100 nM. On the same count and under the same terms, the value for `CS(=O)(=O)Nc1ccc2c(c1)S(=O)(=O)N=C(C1=C(O)[C@H]3[C@H]4CC[C@H]([C@@H]5C[C@@H]54)[C@H]3N(Cc3ccc(F)cc3)C1=O)N2` (racemic) [Example 51, rac-N-{3-[(1R,2R,7S,8S,9S,11R)-3-[(4-Fluorophenyl)methyl]-6-hydroxy-4-oxo-3-azatetracyclo[6.3.2.0^2,7.0^9,11]tridec-5-en-5-yl]-1,1-dioxo-4H-1λ^6,2,4-benzothiadiazin-7-yl}methanesulfonamide] was 20 to 100 nM. For `CS(=O)(=O)Nc1ccc2c(c1)S(=O)(=O)N=C(C1=C(O)C3C4CCC(C5CC54)C3N(Cc3ccc(F)cc3)C1=O)N2` (racemic) [Example 52], the IC50 is 20 to 100 nM. As to `CC(C)CCN1C(=O)C(C2=NS(=O)(=O)c3cc(N(C)S(C)(=O)=O)ccc3N2)=C(O)C2C3CCC(O3)C21` (racemic) [Example 59, (rac-di-exo)-N-{3-[6-Hydroxy-3-(3-methyl-butyl)-4-oxo-11-oxa-3-aza-tricyclo[6.2.1.0^2,7]undec-5-en-5-yl]-1,1-dioxo-1,4-dihydro-1λ^6-benzo[1,2,4]thiadiazin-7-yl}-N-methyl-methanesulfonamide], the IC50 was 100 to 1000 nM. `CS(=O)(=O)Nc1ccc2c(c1)S(=O)(=O)N=C(C1=C(O)C3C(C4CC(O)[C@H]3C4)N(Cc3ccc(F)cc3)C1=O)N2` (stereo in doubt) [Example 67, N-{3-[(1R,2S,7R,8S)-3-(4-Fluoro-benzyl)-6,9-dihydroxy-4-oxo-3-aza-tricyclo[6.2.1.0^2,7]undec-5-en-5-yl]-1,1-dioxo-1,4-dihydro-1λ^6-benzo[1,2,4]thiadiazin-7-yl}-methanesulfonamide]: the IC50 is below 20 nM. Still for that read-out and setting: with `Cc1cc(CN2C(=O)C(C3=NS(=O)(=O)c4cc(NS(C)(=O)=O)ccc4N3)=C(O)[C@H]3[C@@H]2[C@@H]2CC[C@H]3O2)ccc1F` [Example 11, N-{3-[(1S,2R,7S,8R)-3-(4-Fluoro-3-methyl-benzyl)-6-hydroxy-4-oxo-11-oxa-3-aza-tricyclo[6.2.1.0^2,7]undec-5-en-5-yl]-1,1-dioxo-1,4-dihydro-1λ^6-benzo[1,2,4]thiadiazin-7-yl}-methanesulfonamide] the figure was below 20 nM; with `CS(=O)(=O)Nc1ccc2c(c1)S(=O)(=O)N=C(C1=C(O)[C@H]3[C@H]([C@@H]4CC[C@H]3O4)N(Cc3ccc(F)cc3)C1=O)N2` [Example 14, N-{3-[(1S,2R,7S,8R)-3-(4-Fluoro-benzyl)-6-hydroxy-4-oxo-11-oxa-3-aza-tricyclo[6.2.1.0^2,7]undec-5-en-5-yl]-1,1-dioxo-1,4-dihydro-1λ^6-benzo[1,2,4]thiadiazin-7-yl}-methanesulfonamide], below 20 nM. Take `CS(=O)(=O)Nc1ccc2c(c1)S(=O)(=O)N=C(C1=C(O)[C@@H]3[C@H]4CC[C@H](C4)[C@@H]3N(Cc3ccc(F)c(F)c3)C1=O)N2` [Example 16, N-{3-[(1R,2S,7R,8S)-3-(3,4-Difluoro-benzyl)-6-hydroxy-4-oxo-3-aza-tricyclo[6.2.1.0^2,7]undec-5-en-5-yl]-1,1-dioxo-1,4-dihydro-1λ^6-benzo[1,2,4]thiadiazin-7-yl}-methanesulfonamide]: the IC50 is below 20 nM.

`CN(c1ccc2c(c1)S(=O)(=O)N=C(C1=C(O)[C@@H]3[C@H]4CC[C@H](C4)[C@@H]3N(Cc3ccc(F)c(F)c3)C1=O)N2)S(C)(=O)=O` [Example 17, N-{3-[(1R,2S,7R,8S)-3-(3,4-Difluoro-benzyl)-6-hydroxy-4-oxo-3-aza-tricyclo[6.2.1.0^2,7]undec-5-en-5-yl]-1,1-dioxo-1,4-dihydro-1λ^6-benzo[1,2,4]thiadiazin-7-yl}-N-methyl-methanesulfonamide]: the IC50 was 20 to 100 nM. The same measure, in the same setting: the value for `Cc1cc(CN2C(=O)C(C3=NS(=O)(=O)c4cc(N(C)S(C)(=O)=O)ccc4N3)=C(O)[C@@H]3[C@H]4CC[C@H](C4)[C@@H]32)ccc1F` [Example 18, N-{3-[(1R,2S,7R,8S)-3-(4-Fluoro-3-methyl-benzyl)-6-hydroxy-4-oxo-3-aza-tricyclo[6.2.1.0^2,7]undec-5-en-5-yl]-1,1-dioxo-1,4-dihydro-1λ^6-benzo[1,2,4]thiadiazin-7-yl}-N-methyl-methanesulfonamide] was 20 to 100 nM.

Regarding `O=C1C(C2=NS(=O)(=O)c3cc(I)ccc3N2)=C(O)[C@@H]2[C@H]3CC[C@H](C3)[C@@H]2N1Cc1ccc(F)cc1` [Example 19, (1R,2S,7R,8S)-3-(4-Fluoro-benzyl)-6-hydroxy-5-(7-iodo-1,1-dioxo-1,4-dihydro-1λ^6-benzo[1,2,4]thiadiazin-3-yl)-3-aza-tricyclo[6.2.1.0^2,7]undec-5-en-4-one], the IC50 lay in the range of 1000 to 100000 nM. Turning to `O=C1C(C2=NS(=O)(=O)c3cc(C4=CCCS4(=O)=O)ccc3N2)=C(O)[C@@H]2[C@H]3CC[C@H](C3)[C@@H]2N1Cc1ccc(F)cc1` [Example 20, (1R,2S,7R,8S)-5-[7-(1,1-Dioxo-4,5-dihydro-1H-1λ^6-thiophen-2-yl)-1,1-dioxo-1,4-dihydro-1λ^6-benzo[1,2,4]thiadiazin-3-yl]-3-(4-fluoro-benzyl)-6-hydroxy-3-aza-tricyclo[6.2.1.0^2,7]undec-5-en-4-one], the IC50 lay in the range of 100 to 1000 nM.
